{"source": "patent US10125100B2", "about": "“Kinase inhibitors” (Respivert Limited, priority 2014, dated 2018)", "tested_on": "Jurkat cells", "test": "(r) Cell cytotoxicity assay", "type": "cell-based, human", "conditions": "24 hours", "experimental": "1×10^5 Jurkat cells (immortalised human T lymphocytes) are added to the appropriate number of wells of a 96 well plate in 100 μL of media (RPMI supplemented with 10% foetal bovine serum). 1 μL of DMSO control (final concentration 1.0% v/v) or test compound (final concentration 20, 5 or 1 μg/mL) is added to the wells and incubated at 37° C., 5% CO2. After 24 hours, the plate is centrifuged at 1200 rpm for 3 minutes and the supernatant discarded. Cells are then resuspended in 150 μL (final concentration 7.5 μg/mL) of propidium iodide (PI) in PBS and incubated at 37° C., 5% CO2 for 15 minutes. After 15 minutes, cells are analysed by flow cytometry (BD accuri) using the FL3 window. The % viability is calculated as the % of cells that are PI negative in the test wells normalised to the DMSO control.", "data": [{"compound": "COc1cc(Nc2nccc(Oc3ccc(NC(=O)Nc4cc(C(C)(C)C)cc(NS(C)(=O)=O)c4OC)c4ccccc34)n2)ccc1C(=O)NCCCN1CCOCC1", "note": "[17(ao), 4-((4-((4-(3-(5-(tert-Butyl)-2-methoxy-3-(methylsulfonamido)phenyl)ureido)naphthalen-1-yl)oxy)pyrimidin-2-yl)amino)-2-methoxy-N-(3-morpholinopropyl)benzamide]", "values": [{"measurement": "% Viability at 1 μg/mL", "value": 89.2, "unit": "%"}, {"measurement": "% Viability at 5 μg/mL", "value": 16.5, "unit": "%"}, {"measurement": "% Viability at 20 μg/mL", "value": 1.6, "unit": "%"}]}, {"compound": "COc1cc(Nc2cc(Oc3ccc(NC(=O)Nc4cc(C(C)(C)C)cc(NS(C)(=O)=O)c4OC)c4ccccc34)ccn2)ccc1C(=O)NCCOCCO", "note": "[17(bm), 4-((4-((4-(3-(5-(tert-Butyl)-2-methoxy-3-(methylsulfonamido)phenyl)ureido)naphthalen-1-yl)oxy)pyridin-2-yl)amino)-N-(2-(2-hydroxyethoxy)ethyl)-2-methoxybenzamide]", "values": [{"measurement": "% Viability at 1 μg/mL", "value": 103.6, "unit": "%"}, {"measurement": "% Viability at 5 μg/mL", "value": 0.2, "unit": "%"}, {"measurement": "% Viability at 20 μg/mL", "value": 0.5, "unit": "%"}]}, {"compound": "COc1cc(Nc2cc(Oc3ccc(NC(=O)Nc4cc(C(C)(C)C)cc(NS(C)(=O)=O)c4OC)c4ccccc34)ccn2)ccc1C(=O)NCC[N+]1([O-])CCOCC1", "note": "[Example 33, 4-(2-(4-((4-((4-(3-(5-(tert-Butyl)-2-methoxy-3-(methylsulfonamido)phenyl)ureido)naphthalen-1-yl)oxy)pyridin-2-yl)amino)-2-methoxybenzamido)ethyl)morpholine 4-oxide]", "values": [{"measurement": "% Viability at 1 μg/mL", "value": 104.1, "unit": "%"}, {"measurement": "% Viability at 5 μg/mL", "value": 95.5, "unit": "%"}, {"measurement": "% Viability at 20 μg/mL", "value": 69.3, "unit": "%"}]}, {"compound": "COc1cc(Nc2cc(Oc3ccc(NC(=O)Nc4cc(C(C)(C)C)cc(NS(C)(=O)=O)c4OC)c4ccccc34)ccn2)ccc1C(=O)NCCC(=O)O", "note": "[17(ay), 3-(4-((4-((4-(3-(5-(tert-Butyl)-2-methoxy-3-(methylsulfonamido)phenyl)ureido)-naphthalen-1-yl)oxy)pyridin-2-yl)amino)-2-methoxybenzamido)propanoic acid]", "values": [{"measurement": "% Viability at 1 μg/mL", "value": 95.3, "unit": "%"}, {"measurement": "% Viability at 5 μg/mL", "value": 94.6, "unit": "%"}, {"measurement": "% Viability at 20 μg/mL", "value": 90.1, "unit": "%"}]}, {"compound": "COc1c(NC(=O)Nc2ccc(Oc3ccnc(Nc4ccc(P(C)(=O)O)c(N(C)C)c4)c3)c3ccccc23)cc(C(C)(C)C)cc1NS(C)(=O)=O", "note": "[Example 68, [4-[[4-[[4-[[5-tert-Butyl-3-(methanesulfonamido)-2-methoxy-phenyl]carbamoylamino]-1-naphthyl]oxy]-2-pyridyl]amino]-2-(dimethylamino)phenyl]-methyl-phosphinic acid]", "values": [{"measurement": "% Viability at 1 μg/mL", "value": 95.6, "unit": "%"}, {"measurement": "% Viability at 5 μg/mL", "value": 92.7, "unit": "%"}, {"measurement": "% Viability at 20 μg/mL", "value": 90.2, "unit": "%"}]}, {"compound": "COc1cc(Nc2nccc(Oc3ccc(NC(=O)Nc4cc(C(C)(C)C)cc(NS(C)(=O)=O)c4OC)c4ccccc34)n2)ccc1S(N)(=O)=O", "note": "[Example 28, 4-((4-((4-(3-(5-(tert-Butyl)-2-methoxy-3-(methylsulfonamido)phenyl)ureido)naphthalen-1-yl)oxy)pyrimidin-2-yl)amino)-2-methoxybenzenesulfonamide]", "values": [{"measurement": "% Viability at 1 μg/mL", "value": 100.0, "unit": "%"}, {"measurement": "% Viability at 5 μg/mL", "value": 41.1, "unit": "%"}, {"measurement": "% Viability at 20 μg/mL", "value": 18.9, "unit": "%"}]}, {"compound": "COc1cc(Nc2cc(Oc3ccc(NC(=O)Nc4cc(C(C)(C)C)cc(NS(C)(=O)=O)c4OC)c4ccccc34)ccn2)ccc1C(=O)NC[C@@H]1O[C@H](CO)[C@@H](O)[C@H](O)[C@H]1O", "note": "[17(co), 4-((4-((4-(3-(5-(tert-Butyl)-2-methoxy-3-(methylsulfonamido)phenyl)ureido)naphthalen-1-yl)oxy)pyridin-2-yl)amino)-2-methoxy-N-(((2S,3R,4R,5S,6R)-3,4,5-trihydroxy-6-(hydroxymethyl)tetrahydro-2H-pyran-2-yl)methyl)benzamide]", "values": [{"measurement": "% Viability at 1 μg/mL", "value": 94.5, "unit": "%"}, {"measurement": "% Viability at 5 μg/mL", "value": 93.3, "unit": "%"}, {"measurement": "% Viability at 20 μg/mL", "value": 92.2, "unit": "%"}]}, {"compound": "COc1cc(Nc2nccc(Oc3ccc(NC(=O)Nc4cc(C(C)(C)C)cc(NS(C)(=O)=O)c4OC)c4ccccc34)n2)ccc1C(=O)NCCN1CCN(C)CC1", "note": "[17(aq), 4-((4-((4-(3-(5-(tert-Butyl)-2-methoxy-3-(methylsulfonamido)phenyl)ureido)naphthalen-1-yl)oxy)pyrimidin-2-yl)amino)-2-methoxy-N-(2-(4-methylpiperazin-1-yl)ethyl)benzamide]", "values": [{"measurement": "% Viability at 1 μg/mL", "value": 95.1, "unit": "%"}, {"measurement": "% Viability at 5 μg/mL", "value": 0.2, "unit": "%"}, {"measurement": "% Viability at 20 μg/mL", "value": 1.3, "unit": "%"}]}, {"compound": "COc1cc(Nc2cc(Oc3ccc(NC(=O)Nc4cc(C(C)(C)C)cc(C(N)=O)c4OC)c4ccccc34)ccn2)ccc1C(=O)O", "note": "[Example 3, 4-((4-((4-(3-(5-(tert-Butyl)-3-carbamoyl-2-methoxyphenyl)ureido)naphthalen-1-yl)oxy)pyridin-2-yl)amino)-2-methoxybenzoic acid]", "values": [{"measurement": "% Viability at 1 μg/mL", "value": 93.4, "unit": "%"}, {"measurement": "% Viability at 5 μg/mL", "value": 95.9, "unit": "%"}, {"measurement": "% Viability at 20 μg/mL", "value": 91.9, "unit": "%"}]}, {"compound": "COc1cc(Nc2cc(Oc3ccc(NC(=O)Nc4cc(C(C)(C)C)cc(NS(C)(=O)=O)c4OC)c4ccccc34)ccn2)ccc1C(=O)NCCO", "note": "[17(bn), 4-((4-((4-(3-(5-(tert-Butyl)-2-methoxy-3-(methylsulfonamido)phenyl)ureido)naphthalen-1-yl)oxy)pyridin-2-yl)amino)-N-(2-hydroxyethyl)-2-methoxybenzamide]", "values": [{"measurement": "% Viability at 1 μg/mL", "value": 102.8, "unit": "%"}, {"measurement": "% Viability at 5 μg/mL", "value": 65.6, "unit": "%"}, {"measurement": "% Viability at 20 μg/mL", "value": 19.5, "unit": "%"}]}, {"compound": "COc1cc(Nc2cc(Oc3ccc(NC(=O)Nc4cc(C(C)(C)C)cc(NS(C)(=O)=O)c4OC)c4ccccc34)ccn2)ccc1CP(C)(=O)O", "note": "[Example 70, (4-((4-((4-(3-(5-(tert-Butyl)-2-methoxy-3-(methylsulfonamido)phenyl)ureido)naphthalen-1-yl)oxy)pyridin-2-yl)amino)-2-methoxybenzyl)(methyl)phosphinic acid]", "values": [{"measurement": "% Viability at 1 μg/mL", "value": 95.3, "unit": "%"}, {"measurement": "% Viability at 5 μg/mL", "value": 91.9, "unit": "%"}, {"measurement": "% Viability at 20 μg/mL", "value": 63.8, "unit": "%"}]}, {"compound": "COc1cc(Nc2nccc(Oc3ccc(NC(=O)Nc4cc(C(C)(C)C)cc(NS(C)(=O)=O)c4OC)c4ccccc34)n2)cc(OC)c1C(=O)NCCN1CCN(C)CC1", "note": "[17(az), 4-((4-((4-(3-(5-(tert-Butyl)-2-methoxy-3-(methylsulfonamido)phenyl)ureido)naphthalen-1-yl)oxy)pyrimidin-2-yl)amino)-2,6-dimethoxy-N-(2-(4-methylpiperazin-1-yl)ethyl)benzamide]", "values": [{"measurement": "% Viability at 1 μg/mL", "value": 105.4, "unit": "%"}, {"measurement": "% Viability at 5 μg/mL", "value": 93.1, "unit": "%"}, {"measurement": "% Viability at 20 μg/mL", "value": 4.5, "unit": "%"}]}, {"compound": "COc1cc(Nc2cc(Oc3ccc(NC(=O)Nc4cc(NS(C)(=O)=O)cc(C(C)(C)C)c4)c4ccccc34)ccn2)ccc1C(=O)NCCC1CCN(C)CC1", "note": "[17(bs), 4-((4-((4-(3-(3-(tert-Butyl)-5-(methylsulfonamido)phenyl)ureido)naphthalen-1-yl)oxy)pyridin-2-yl)amino)-2-methoxy-N-(2-(1-methylpiperidin-4-yl)ethyl)benzamide]", "values": [{"measurement": "% Viability at 1 μg/mL", "value": 90.9, "unit": "%"}, {"measurement": "% Viability at 5 μg/mL", "value": 48.7, "unit": "%"}, {"measurement": "% Viability at 20 μg/mL", "value": 0.3, "unit": "%"}]}, {"compound": "COc1cc(Nc2nccc(Oc3ccc(NC(=O)Nc4cc(C(C)(C)C)cc(NS(C)(=O)=O)c4OC)c4ccccc34)n2)ccc1C(=O)NCCCN1CCN(C)CC1", "note": "[17(ap), 4-((4-((4-(3-(5-(tert-Butyl)-2-methoxy-3-(methylsulfonamido)phenyl)ureido)naphthalen-1-yl)oxy)pyrimidin-2-yl)amino)-2-methoxy-N-(3-(4-methylpiperazin-1-yl)propyl)benzamide]", "values": [{"measurement": "% Viability at 1 μg/mL", "value": 97.8, "unit": "%"}, {"measurement": "% Viability at 5 μg/mL", "value": 40.1, "unit": "%"}, {"measurement": "% Viability at 20 μg/mL", "value": 0.6, "unit": "%"}]}, {"compound": "COc1cc(Nc2cc(Oc3ccc(NC(=O)Nc4cc(C(C)(C)C)cc(NS(C)(=O)=O)c4OC)c4ccccc34)ccn2)ccc1C(=O)NCC(CO)(CO)CO", "note": "[Example 38, 4-((4-((4-(3-(5-(tert-Butyl)-2-methoxy-3-(methylsulfonamido)phenyl)ureido)naphthalen-1-yl)oxy)pyridin-2-yl)amino)-N-(3-hydroxy-2,2-bis(hydroxymethyl)propyl)-2-methoxybenzamide]", "values": [{"measurement": "% Viability at 1 μg/mL", "value": 90.0, "unit": "%"}, {"measurement": "% Viability at 5 μg/mL", "value": 63.7, "unit": "%"}, {"measurement": "% Viability at 20 μg/mL", "value": 6.0, "unit": "%"}]}, {"compound": "COc1cc(Nc2cc(Oc3ccc(NC(=O)Nc4cc(C(C)(C)C)cc(NS(C)(=O)=O)c4OC)c4ccccc34)ccn2)ccc1C(=O)N[C@@H](CO)C(=O)O", "note": "[17(bj), (S)-2-(4-((4-((4-(3-(5-(tert-Butyl)-2-methoxy-3-(methylsulfonamido)phenyl)ureido)-naphthalen-1-yl)oxy)pyridin-2-yl)amino)-2-methoxybenzamido)-3-hydroxypropanoic acid]", "values": [{"measurement": "% Viability at 1 μg/mL", "value": 96.2, "unit": "%"}, {"measurement": "% Viability at 5 μg/mL", "value": 96.6, "unit": "%"}, {"measurement": "% Viability at 20 μg/mL", "value": 94.8, "unit": "%"}]}, {"compound": "COc1c(NC(=O)Nc2ccc(Oc3ccnc(Nc4ccc(C(=O)O)c(N(C)C)c4)n3)c3ccccc23)cc(C(C)(C)C)cc1NS(C)(=O)=O", "note": "[17(bc), 4-((4-((4-(3-(5-(tert-Butyl)-2-methoxy-3-(methylsulfonamido)phenyl)ureido)naphthalen-1-yl)oxy)pyrimidin-2-yl)amino)-2-(dimethylamino)benzoic acid]", "values": [{"measurement": "% Viability at 1 μg/mL", "value": 93.9, "unit": "%"}, {"measurement": "% Viability at 5 μg/mL", "value": 89.2, "unit": "%"}, {"measurement": "% Viability at 20 μg/mL", "value": 10.8, "unit": "%"}]}, {"compound": "COc1cc(Nc2cc(Oc3ccc(NC(=O)Nc4cc(C(C)(C)C)cc(NS(C)(=O)=O)c4OC)c4ccccc34)ccn2)ccc1C(=O)NCCCCCN(C)C", "note": "[17(bd), 4-((4-((4-(3-(5-(tert-Butyl)-2-methoxy-3-(methylsulfonamido)phenyl)ureido)naphthalen-1-yl)oxy)pyridin-2-yl)amino)-N-(5-(dimethylamino)pentyl)-2-methoxybenzamide]", "values": [{"measurement": "% Viability at 1 μg/mL", "value": 85.8, "unit": "%"}, {"measurement": "% Viability at 5 μg/mL", "value": 28.7, "unit": "%"}, {"measurement": "% Viability at 20 μg/mL", "value": 0.1, "unit": "%"}]}]}
